The record followed here is patent US4122077A, “Somatostatin analogs” (American Home Products Corporation, priority 1977, dated 1978).

Where a SMILES comes first, the peptide text is derived from it. Bridges are numbered along the chain shown (N, C = ends). [ ]: non-standard residue; d: D form.

The test system of assay [1] is growth hormone (GH). The assay can be described thus: Suppression of growth hormone (duration of activity after sc injection). In kind it is in vivo, rats. The following applies: 1000 μg/kg. sc, rats. On the procedure: A subcutaneous (sc) injection of peptide solubilized or suspended in physiological saline, is given to Charles River CD® nonfasted male rats. Matched saline control solution sc injected rats serve as control animals so that every experimental rat is paired with a control rat. The rats are kept in separate cages and 20 minutes before the end of the test time period they are given an intraperitoneal (i.p.) injection of Nembutal® at a dose of 50 mg/kg. Blood samples are obtained by cardiac puncture and the plasma separated for the radioimmunoassay of growth hormone (GH) concentration (ng/ml.). Time periods after injection of 2, 4, 5, and 6 hours are generally used to test the duration of the activity of the peptide to suppress circulating peripheral GH levels. Comparisons between control and experimental GH values at each time are evaluated by the Student "t" test and statistical significance (p) at the 0.05 level or lower is used as the index of activity.

The subject of assay [2] is growth hormone. The assay can be described thus: Suppression of growth hormone, glucagon and insulin (arginine-stimulated, nembutal rats): GH. In kind it is in vivo. The settings on record: arginine challenge (table 5). On the procedure:
(§1) Albino male rats are arranged in three groups (nine rats/group) and injected i.p. with nembutal at 50mg/kg. 15 minutes after the nembutal injection they are injected s.c. according to group with (a) test compound, typically 10-2000 μg/kg.; (b) SRIF 200 μg/kg.; or (c) physiological saline. 10 minutes later 0.5 ml. of arginine (300 mg/ml., pH 7.2) is injected into the heart. The rats are decapitated 5 minutes after receiving the arginine, and the blood is collected into Trasylol-EDTA. Appropriate aliquots are then assayed for growth hormone, glucagon and insulin. […] Comparisons between control and experimental values are statistically evaluated by the analysis of variants method and statistical significance (p) at 0.05 or lower is used as the index of activity.

For assay [3], the system named is insulin. Briefly: Suppression of growth hormone, glucagon and insulin (arginine-stimulated, nembutal rats): insulin. The following applies: arginine challenge. In kind it is in vivo. On the procedure:
as §1

The subject of assay [4] is glucagon. Briefly: Suppression of growth hormone, glucagon and insulin (arginine-stimulated, nembutal rats): glucagon. In kind it is in vivo. The settings on record: arginine challenge. On the procedure:
as §1

With `C[C@@H](O)[C@@H]1NC(=O)[C@H](CCCCN)NC(=O)[C@@H](Cc2c[nH]c3ccccc23)NC(=O)[C@H](Cc2ccccc2)NC(=O)[C@H](Cc2ccccc2)NC(=O)[C@@H](Cc2ccc(O)cc2)NC(=O)[C@@H](CCCNC(=N)N)NC(=O)[C@@H](N)CSSC[C@H](C(=O)O)NC(=O)[C@H](CO)NC(=O)[C@H]([C@@H](C)O)NC(=O)[C@H](Cc2ccccc2)NC1=O` [H, L-Cysteinyl-D-Arginyl-D-Tyrosyl-L-Phenylalanyl-L-Phenylalanyl-D-Tryptophyl-L-Lysyl-L-Threonyl-L-Phenylalanyl-L-Threonyl-L-Seryl-D-Cysteine Cyclic (1-12)-Disulfide] (H-C[dR][dY]FF[dW]KTFTS[dC]-OH; disulfide 1-12), in assay [1], the “GH, 2 Hours” value was found to be 75 ± 4 ng/mL and the “GH, 4 Hours” value was found to be 144 ± 21 ng/mL. The molecule further came in with a GH in assay [2] (25 μg/kg. s.c.) of 23 ± 4. The Insulin in assay [3] (25 μg/kg. s.c.) was determined as 128 ± 11 μU/ml. In assay [4] (25 μg/kg. s.c.), this molecule displayed a Glucagon of 56 ± 6 pg/mL.

On to `CC(C)C[C@H]1NC(=O)[C@@H](N)CSSC[C@@H](C(=O)O)NC(=O)[C@H](CO)NC(=O)[C@H]([C@@H](C)O)NC(=O)[C@H](Cc2ccccc2)NC(=O)[C@H]([C@@H](C)O)NC(=O)[C@H](CCCCN)NC(=O)[C@@H](Cc2c[nH]c3ccccc23)NC(=O)[C@H](Cc2ccccc2)NC(=O)[C@H](Cc2ccccc2)NC(=O)[C@@H](Cc2ccc(O)cc2)NC1=O` [G, L-Cysteinyl-D-Leucyl-D-Tyrosyl-L-Phenylalanyl-L-Phenylalanyl-D-Trypotophyl-L-Lysyl-L-Threonyl-L-Phenylalanyl-L-Threonyl-L-Seryl-L-Cysteine Cyclic (1-12)-Disulfide] (H-C[dL][dY]FF[dW]KTFTSC-OH; disulfide 1-12), for which, in assay [1], the “GH, 2 Hours” value was 84 ± 11 ng/mL and the “GH, 4 Hours” value came to 94 ± 23 ng/mL. In addition, the “GH, 5 Hours” value in assay [1] (5 hours) came to 93 ± 30 ng/mL. In addition, the “GH, 6 Hours” value in assay [1] (6 hours) turned out to be 72 ± 68 ng/mL. Also, in assay [2] (100 μg/kg. s.c.), the GH is given as 29 ± 16. In addition, the Insulin in assay [3] (100 μg/kg. s.c.) came to 218 ± 44 μU/ml. In assay [4] (100 μg/kg. s.c.), this molecule displayed a Glucagon of 28 ± 16 pg/mL.
